Legend:
[1] = Body weight in monkeys, 2 mg/kg 30-min IV infusion; assay type: in vivo, Cynomolgus monkeys; conditions: Day 1, Mean
Protocol: (§1) TH 3423 and TH 3424 were tested in […] naïve monkeys (1 male and one female for each compound at 2 mg/kg) with 30-min intravenous infusion, TK sampling: on Day 1 and Day 15: 0.25, 0.5, 0.75, 1 and 2 hr post infusion initiation. Serum chemistry and hematology: pre-dose (Day 1), day 5, day 8 (pre-dose), day 15 (pre-dose), day 22 and day 28. Clinical observation: Daily during the study, total 35 days. Food consumption: Daily during the study, total 35 days. Bodyweight measurement: Twice weekly for five weeks.

[2] = Serum chemistry in monkeys, 2 mg/kg 30-min IV infusion; assay type: in vivo, Cynomolgus monkeys
Protocol: as §1

C[C@@H](OP(=O)(N1CC1)N1CC1)c1ccc([N+](=O)[O-])c(Oc2cccc(C(=O)N(C)C)c2)c1 (single isomer, unassigned) [TH3423]
body weight [1]: 3.50 | A/G ([2]; female, Day 1 (pre-dose)): 1.8 | ALB ([2]; female, Day 1 (pre-dose)): 42 g/L | ALP ([2]; female, Day 1 (pre-dose)): 205.5 U/L | ALT ([2]; female, Day 1 (pre-dose)): 41.7 U/L | AST ([2]; female, Day 1 (pre-dose)): 43.3 U/L | BUN ([2]; female, Day 1 (pre-dose)): 4.06 mM | CK ([2]; female, Day 1 (pre-dose)): 342 U/L | CREA ([2]; female, Day 1 (pre-dose)): 95 µM | Ca ([2]; female, Day 1 (pre-dose)): 2.39 mmol/L | GLB ([2]; female, Day 1 (pre-dose)): 24 g/L | Glu ([2]; female, Day 1 (pre-dose)): 6.03 mM | K ([2]; female, Day 1 (pre-dose)): 6.14 mmol/L | Na ([2]; female, Day 1 (pre-dose)): 146 mmol/L | TBIL ([2]; female, Day 1 (pre-dose)): 0.0 µM | TC ([2]; female, Day 1 (pre-dose)): 2.48 mM | TG ([2]; female, Day 1 (pre-dose)): 0.45 mmol/L | TP ([2]; female, Day 1 (pre-dose)): 66.0 g/L | γ-GT ([2]; female, Day 1 (pre-dose)): 41.5 U/L | A/G ([2]; female, Day 8 (pre-dose)): 1.3 | ALB ([2]; female, Day 8 (pre-dose)): 40.9 g/L | ALP ([2]; female, Day 8 (pre-dose)): 190.3 U/L | ALT ([2]; female, Day 8 (pre-dose)): 25.5 U/L | AST ([2]; female, Day 8 (pre-dose)): 57.7 U/L | BUN ([2]; female, Day 8 (pre-dose)): 7.61 mM | CK ([2]; female, Day 8 (pre-dose)): 126 U/L | CREA ([2]; female, Day 8 (pre-dose)): 120 µM | Ca ([2]; female, Day 8 (pre-dose)): 2.47 mmol/L | GLB ([2]; female, Day 8 (pre-dose)): 30.9 g/L | Glu ([2]; female, Day 8 (pre-dose)): 2.13 mM | K ([2]; female, Day 8 (pre-dose)): 4.83 mmol/L | Na ([2]; female, Day 8 (pre-dose)): 149 mmol/L | TBIL ([2]; female, Day 8 (pre-dose)): 0.4 µM | TC ([2]; female, Day 8 (pre-dose)): 3.01 mM | TG ([2]; female, Day 8 (pre-dose)): 1.17 mmol/L | TP ([2]; female, Day 8 (pre-dose)): 71.8 g/L | γ-GT ([2]; female, Day 8 (pre-dose)): 37.0 U/L | A/G ([2]; female, Day 15 (pre-dose)): 1.7 | ALB ([2]; female, Day 15 (pre-dose)): 34.2 g/L | ALP ([2]; female, Day 15 (pre-dose)): 123.6 U/L | ALT ([2]; female, Day 15 (pre-dose)): 21.1 U/L | AST ([2]; female, Day 15 (pre-dose)): 76.7 U/L | BUN ([2]; female, Day 15 (pre-dose)): 5.96 mM | CK ([2]; female, Day 15 (pre-dose)): 78 U/L | CREA ([2]; female, Day 15 (pre-dose)): 69 µM | Ca ([2]; female, Day 15 (pre-dose)): 2.36 mmol/L | GLB ([2]; female, Day 15 (pre-dose)): 20.7 g/L | Glu ([2]; female, Day 15 (pre-dose)): 2.51 mM | K ([2]; female, Day 15 (pre-dose)): 4.81 mmol/L | Na ([2]; female, Day 15 (pre-dose)): 128.17 mmol/L | TBIL ([2]; female, Day 15 (pre-dose)): 1.4 µM | TC ([2]; female, Day 15 (pre-dose)): 2.02 mM | TG ([2]; female, Day 15 (pre-dose)): 0.84 mmol/L | TP ([2]; female, Day 15 (pre-dose)): 54.9 g/L | γ-GT ([2]; female, Day 15 (pre-dose)): 29.4 U/L | A/G ([2]; male, Day 1 (pre-dose)): 1.8 | ALB ([2]; male, Day 1 (pre-dose)): 46.9 g/L | ALP ([2]; male, Day 1 (pre-dose)): 746.4 U/L | ALT ([2]; male, Day 1 (pre-dose)): 45.0 U/L | AST ([2]; male, Day 1 (pre-dose)): 37.0 U/L | BUN ([2]; male, Day 1 (pre-dose)): 3.47 mM | CK ([2]; male, Day 1 (pre-dose)): 146 U/L | CREA ([2]; male, Day 1 (pre-dose)): 66 µM | Ca ([2]; male, Day 1 (pre-dose)): 2.54 mmol/L | GLB ([2]; male, Day 1 (pre-dose)): 26 g/L | Glu ([2]; male, Day 1 (pre-dose)): 3.12 mM | K ([2]; male, Day 1 (pre-dose)): 6.92 mmol/L | Na ([2]; male, Day 1 (pre-dose)): 143 mmol/L | TBIL ([2]; male, Day 1 (pre-dose)): 5.2 µM | TC ([2]; male, Day 1 (pre-dose)): 2.1 mM | TG ([2]; male, Day 1 (pre-dose)): 0.24 mmol/L | TP ([2]; male, Day 1 (pre-dose)): 72.9 g/L | γ-GT ([2]; male, Day 1 (pre-dose)): 78.4 U/L | A/G ([2]; male, Day 8 (pre-dose)): 1.1 | ALB ([2]; male, Day 8 (pre-dose)): 39.1 g/L | ALP ([2]; male, Day 8 (pre-dose)): 540.3 U/L | ALT ([2]; male, Day 8 (pre-dose)): 21.0 U/L | AST ([2]; male, Day 8 (pre-dose)): 40.8 U/L | BUN ([2]; male, Day 8 (pre-dose)): 26.8 mM | CK ([2]; male, Day 8 (pre-dose)): 153 U/L | CREA ([2]; male, Day 8 (pre-dose)): 141 µM | Ca ([2]; male, Day 8 (pre-dose)): 2.55 mmol/L | GLB ([2]; male, Day 8 (pre-dose)): 37.1 g/L | Glu ([2]; male, Day 8 (pre-dose)): 5.28 mM | K ([2]; male, Day 8 (pre-dose)): 5.86 mmol/L | Na ([2]; male, Day 8 (pre-dose)): 112 mmol/L | TBIL ([2]; male, Day 8 (pre-dose)): 9.8 µM | TC ([2]; male, Day 8 (pre-dose)): 1.72 mM | TG ([2]; male, Day 8 (pre-dose)): 2.25 mmol/L | TP ([2]; male, Day 8 (pre-dose)): 76.2 g/L | γ-GT ([2]; male, Day 8 (pre-dose)): 37.6 U/L

Source: patent US10409869B2, “(R)- and (S)-1-(3-(3-N,N-dimethylaminocarbonyl)phenoxyl-4-nitrophenyl)-1-ethyl-N,N'-bis (ethylene)phosphoramidate, compositions and methods for their use and preparation” (OBI Pharma, Inc., priority 2015, dated 2019)
